Test results reported in patent publication US8445532B2, “Use of phthalide derivatives” (priority 2005, dated 2013).
≈ marks a conversion by molar mass, not a printed value.

Key:
[1] = system: MCF-7/Adr cells; experiment: Sensitizing effect of PA to conventional chemotherapeutic drugs (MTT); format: cell-based, human; conditions: for RF (Ctrl/S), Adr / RF (Ctrl/S), DDP / RF (Ctrl/S), Taxol / RF (Ctrl/S), Vin: IC50 without sensitizer / with sensitizer 10 μg/mL
Experimental: (§1) The cells at logarithmic phase were collected and added into RPMI 1640 medium (containing 10% fetal bovine serum) to make cell suspensions. The cell suspension was added to 96-well plate at 100 μl per well, and the cell number was 2×10^3 (suspending cells) or 1×10^3 (adherent cells) per well. After inoculation, the suspending cells were adapted for half an hour on the plate and the adherent cells were cultivated to allow adhesion before the drugs were added. The control groups (Ctrl) were added with anti-tumor drugs but without PA. The drug concentration of each PA group was 10 μg/mL. The concentrations of chemotherapeutic drugs increased from 0.001 μg/mL to 20 μg/mL. There Were six parallel repeated wells for every concentration gradient. RPMI 1640 was added up to a finally volume of 200 μl per well. The cells were cultured at the condition of 37° C., saturated humidity, 5% CO2 for 68 hours. The MTT was determined and the IC50 was calculated as in example 4.
(§2) The formula of resistant factor: Resistant Factor (RF)=the IC50 without sensitizer/the IC50 with sensitizer.

[2] = system: K562/Adr cells; experiment: as above; format: cell-based, human; conditions: for RF (Ctrl/S), Adr / RF (Ctrl/S), DDP / RF (Ctrl/S), Taxol / RF (Ctrl/S), Vin: IC50 without sensitizer / with sensitizer 10 μg/mL
Experimental: as §1, §2

[3] = system: KBv200 cells; experiment: as above; format: cell-based, human; conditions: for RF (Ctrl/S), Adr / RF (Ctrl/S), DDP / RF (Ctrl/S), Taxol / RF (Ctrl/S), Vin: KBv200, IC50 without sensitizer / with sensitizer 10 μg/mL
Experimental: as §1, §2

[4] = system: KBv200; experiment: Growth inhibiting effect of PA on drug resistant cells (MTT); format: cell-based; conditions: Homo sapiens; KBv200, PA alone; read-out: IC50 growth inhibition
Experimental: (§3) Methods: 1×10^3 cells per well were inoculated onto a 96-well plate. PA was added to K562/Adr directly and to KBV200 and MCF-7/Adr after adhesion. The concentrations of the drugs were 0, 0.1, 0.5, 1, 5, 10, 20, 40, 80, 160 μg/mL. MTT was determined according to the method of example 2 and the IC50 was calculated. The experiment was repeated three times.

[5] = system: K562/Adr; experiment: as above; format: cell-based; conditions: Homo sapiens, PA alone, read-out: IC50 growth inhibition
Experimental: as §3

[6] = system: MCF-7/Adr; experiment: as above; format: cell-based; conditions: Homo sapiens, NCI/ADR-RES, PA alone, read-out: IC50 growth inhibition
Experimental: as §3

[7] = system: KBv200; experiment: MTT drug resistance determination to conventional chemotherapeutic drugs; format: cell-based, human
Description: (§4) The following cell lines were used: K562 (human chronic myeloid leukemia cell line) and K562/Adr (a cell line with drug-resistance to chemotherapeutic drugs such as Adriamycin induced by a long-term exposure to a low dosage of Adriamycin); KB (human oral epithelia cell line) and KBv200 (a cell line with drug-resistance to chemotherapeutic drugs such as Vincristine induced by a long-term exposure to a low dosage of Vincristine); MCF-7 (human mammary cancer cell line) and MCF-7/Adr (a cell line with drug-resistance to chemotherapeutic drugs such as Adriamycin induced by a long-term exposure to a low dosage of Adriamycin). All the cell lines mentioned above were purchased from Institute of Hematology, Chinese Academy of Medical Sciences.
The multi-drug resistant cell line, of KBv200 is also mainly characterized by the concurrency of multiple resistant mechanisms including the increased expression of P-gp and Bcl-2 family proteins, and the enhanced activity of glyoxalase I, etc. KBv200 is resistant to Vincristine more than 100 folds in comparison with KB, and cross-resistant to […], Daunomycin, Mitoxantrone, Taxol, etc.
(§5) Half-inhibitory concentration (IC50) was calculated by the GraphPad Prism software (San Diego, Calif.). Drug reaction was analyzed by Sigmoldal non-linear regression model.
(§6) The cells at logarithmic phase were collected and added into RPMI 1640 medium (containing 10% fetal bovine serum) to prepare a cell suspension. Then the cell suspension was plated onto a 96-well plate at 100 μl per well (1×10^4 cell/well). Adriamycin, Vincristine, Taxol, cisplatin of different concentration gradients were directly added to the semi-suspending cells (K562 and K562/Adr). The adherent cells were cultured for 24 hours after inoculation so that they could adhere completely, and then the drugs mentioned above in different concentrations were added. There were six parallel repeated wells for every concentration gradient. The medium was added up to a final volume of 200 μl per well. The cells were cultured at the condition of 37° C., saturated humidity, 5% CO2 for 68 hours. 50 μl MTT (2 mg/mL) per well was added. The 96-well plate was centrifuged and the supernatant was removed. Then 120 μl DMSO per well was added and vibrated by vibrator. The OD value was determined at a wavelength of 590 nm by enzyme labeling instrument after the crystal was dissolved completely.
(§7) The calculating method: IC50=drug concentration when the inhibitory rate was 50%.
(§8) Drug resistant factor (RF)=the IC50 of the drug resistant cells/the IC50 of the sensitive cells.

[8] = system: MCF-7/Adr; experiment: as above; format: cell-based, human
Description: as §4
Similarly, the multi-drug resistant cell line of MCF-7/Adr is also mainly characterized by the concurrency of multiple resistant mechanisms including the increased expression of P-gp and Bcl-2 family proteins, and the enhanced activity of glyoxalase I, etc.
as §5, §6, §7, §8

[9] = system: K562/Adr; experiment: as above; format: cell-based, human
Description: as §4
The multi-drug resistant cell line of K562/Adr is mainly characterized by the concurrency of multiple resistant mechanisms including the increased expression of P-gp and Bcl-2 family proteins, and the enhanced activity of glyoxalase I, etc. K562/Adr is resistant to Adriamycin 20 folds more than K562, and cross-resistant to Vincristine, Daunomycin, Mitoxantrone, Taxol, etc.
as §5, §6, §7, §8

[10] = system: K562; experiment: as above; format: cell-based, human; conditions: Homo sapiens, K562, drug alone, 68 h, read-out: IC50
Description: as §4, §5, §6, §7, §8

[11] = system: MCF-7; experiment: as above; format: cell-based, human; conditions: Homo sapiens, MCF7, MCF-7, drug alone, 68 h, read-out: IC50
Description: as §4, §5, §6, §7, §8

[12] = system: KB; experiment: as above; format: cell-based, human; conditions: Homo sapiens, drug alone, 68 h, read-out: IC50
Description: as §4, §5, §6, §7, §8

Row | IC50 [5] [µg/mL] | IC50 [6] [µg/mL] | SMILES | RF (Ctrl/S), Adr [1] | RF (Ctrl/S), DDP [1] | RF (Ctrl/S), Taxol [1] | RF (Ctrl/S), Vin [1] | RF (Ctrl/S), Adr [2] | RF (Ctrl/S), DDP [2] | RF (Ctrl/S), Taxol [2] | RF (Ctrl/S), Vin [2] | RF (Ctrl/S), Adr [3] | RF (Ctrl/S), DDP [3] | RF (Ctrl/S), Taxol [3] | RF (Ctrl/S), Vin [3] | IC50 [4] [µg/mL] | other results
1 | 21.4 ± 1.09 (≈ 111 µM) | 37.4 ± 3.15 (≈ 195 µM) | CCCCC1OC(=O)C2=C1CCC=C2 (single isomer, unassigned) [S1] | 11.34 | 3.376 | 2.685 | 11.12 | 34.99 | 5.116 | 24.04 | 6.214 | 10.27 | 8.063 | 5.245 | 13.03 | 38.7 ± 2.13 (≈ 201 µM) | –
2 | 39.2 ± 1.58 (≈ 190 µM) | 34 ± 3.76 (≈ 165 µM) | CCC/C=C1\OC(=O)C2=C1CCC1OC21 (single isomer, unassigned) [S3] | 4.153 | 6.708 | 3.232 | 4.008 | 13.93 | 2.239 | 5.740 | 4.899 | 18.97 | 7.188 | 2.548 | 6.169 | 27.4 ± 1.06 (≈ 133 µM) | –
3 | 18.3 ± 0.762 (≈ 81.6 µM) | 39.3 ± 2.14 (≈ 175 µM) | CCC/C=C1\OC(=O)C2=C1CCC(O)C2O (single isomer, unassigned) [S5] | 5.02 | 4.508 | 15.62 | 6.934 | 6.264 | 2.104 | 2.117 | 3.109 | 16.95 | 3.208 | 13.88 | 2.088 | 29.8 ± 1.05 (≈ 133 µM) | –
4 | – | – | COc1cccc2c1C(=O)c1c(O)c3c(c(O)c1C2=O)C[C@@](O)(C(=O)CO)C[C@@H]3O[C@H]1C[C@H](N)[C@H](O)[C@H](C)O1 [Adr, doxorubicin] | – | – | – | – | – | – | – | – | – | – | – | – | – | IC50 ([7]; Homo sapiens, KBv200, drug alone, 68 h, MTT, read-out: IC50): 16.3 ± 1.03 µg/mL (≈ 30 µM); RF (drug resistant factor) ([7]; IC50 KBv200 / IC50 KB): 33.22; IC50 ([1]; Homo sapiens, NCI/ADR-RES, drug alone, 68 h, read-out: IC50 of anti-tumor drug, Ctrl (without PA)): 6.32 ± 0.775 µg/mL; IC50 ([2]; Homo sapiens, drug alone, 68 h, read-out: IC50 of anti-tumor drug, Ctrl (without PA)): 7.67 ± 0.16 µg/mL; IC50 ([3]; Homo sapiens, KBv200, drug alone, 68 h, read-out: IC50 of anti-tumor drug, Ctrl (without PA)): 4.39 ± 0.336 µg/mL; IC50 ([8]; Homo sapiens, NCI/ADR-RES, MCF-7/Adr, drug alone, 68 h, MTT, read-out: IC50): 19 ± 0.67 µg/mL (≈ 34.9 µM); RF (drug resistant factor) ([8]; IC50 MCF-7/Adr / IC50 MCF-7): 59.07; IC50 ([9]; Homo sapiens, K562/Adr, drug alone, 68 h, MTT, read-out: IC50): 14.1 ± 0.35 µg/mL (≈ 25.9 µM); RF (drug resistant factor) ([9]; IC50 K562/Adr / IC50 K562): 65.39; Resistance of K562/Adr relative to K562 ([9]; description of cell line): 20 folds; IC50 [10]: 0.215 ± 0.152 µg/mL (≈ 0.396 µM); IC50 [11]: 0.312 ± 0.143 µg/mL (≈ 0.574 µM); IC50 [12]: 0.49 ± 0.176 µg/mL (≈ 0.902 µM)
5 | 41.4 ± 3.53 (≈ 201 µM) | 29.4 ± 2.8 (≈ 143 µM) | CCCCC1OC(=O)c2cccc(O)c21 (stereo not shown) [S2] | 6.939 | 2.565 | 10.19 | 6.239 | 41.12 | 5.698 | 10.57 | 1.757 | 12.23 | 2.767 | 10.83 | 11.40 | 26.4 ± 1.98 (≈ 128 µM) | –
6 | 32.4 ± 1.13 (≈ 170 µM) | 47.3 ± 2.12 (≈ 249 µM) | CCC/C=C1\OC(=O)C2=C1CCC=C2 [S4] | 3.114 | 5.125 | 4.279 | 26.01 | 6.349 | 3.007 | 2.412 | 6.432 | 5.331 | 6.981 | 6.416 | 13.02 | 32.5 ± 1.03 (≈ 171 µM) | –
7 | 29.8 ± 0.995 (≈ 78.3 µM) | 44.5 ± 3.99 (≈ 117 µM) | CCC/C=C1\OC(=O)C2=C1CC[C@H]1C3C=C4C(=O)O/C(=C\CCC)[C@@]4(CC3)C21 (stereo partly shown) [S6] | 12.59 | 2.539 | 3.932 | 13.22 | 6.249 | 1.371 | 1.641 | 1.833 | 2.297 | 2.622 | 8.72 | 3.342 | 35.2 ± 2.15 (≈ 92.6 µM) | –
8 | 20.4 ± 2.61 (≈ 53.7 µM) | 39.6 ± 4.61 (≈ 104 µM) | CCC/C=C1\OC(=O)C2=C1CCC1C(CCC)C3(OC(=O)C4=C3CCC=C4)C21 (stereo not shown) [S7] | 14.12 | 6.516 | 7.023 | 3.831 | 8.257 | 0.653 | 1.550 | 3.963 | 2.405 | 5.939 | 5.179 | 7.376 | 36.9 ± 2.19 (≈ 97 µM) | –
9 | 31.3 ± 1.87 (≈ 81.8 µM) | 43.2 ± 3.14 (≈ 113 µM) | CCC/C=C1\OC(=O)C2=CC3CC[C@]21C1C2=C(CC[C@@H]31)C(CCCC)OC2=O (stereo partly shown) [S8] | 5.639 | 6.407 | 1.612 | 9.597 | 1.796 | 2.722 | 3.506 | 7.918 | 3.623 | 4.375 | 3.87 | 7.326 | 38.6 ± 2.17 (≈ 101 µM) | –
